From ChEMBL document CHEMBL5338704, “Discovery of novel phenylhydrazone-based oxindole-thiolazoles as potent antibacterial agents toward Pseudomonas aeruginosa” (Eur J Med Chem, 2022)
Values after ≈ are worked out from the molar mass of the structure shown. Active and inactive are the calls of the source. The rule behind the calls is not given here.

Experiments:
Pseudomonas aeruginosa [1] = assay: Antibacterial activity against Pseudomonas aeruginosa assessed as reduction in LDH activity at 8 times MIC; type: functional; parameters: scale not given: the % may be the effect or the level left
Pseudomonas aeruginosa [2] = assay: Induction of resistance development in Pseudomonas aeruginosa ATCC 27853 assessed as fold increase in MIC treated over 30 serial passages; type: functional
Cell membrane [3] = assay: Induction of inner membrane damage in Pseudomonas aeruginosa assessed as increase in red fluorescence cells at 0.5 to 8 times MIC incubated for 6 hrs by Calcein AM dye based fluorescence based assay; type: subcellular
Cell membrane [4] = assay: Induction of outer membrane permeabilization in Pseudomonas aeruginosa assessed as increase in fluorescence intensity by NPN-dye based fluorescence analysis; type: subcellular; conditions: dose 0.5-8 µg/ml
Pseudomonas aeruginosa [5] = assay: Antibacterial activity against Pseudomonas aeruginosa assessed as […] inactivation at 0.5 to 8 times MIC by alamar blue staining based analysis; type: functional, organism-based
Pseudomonas aeruginosa [6] = assay: Antibacterial activity against Pseudomonas aeruginosa assessed as reduction in LDH activity at 0.5 to 8 times MIC; type: functional, organism-based
Pseudomonas aeruginosa [7] = assay: Antibacterial activity against Pseudomonas aeruginosa assessed as inhibition of bacterial growth by micro-broth dilution assay; type: functional
Cell membrane [8] = assay: Induction of inner membrane damage in Pseudomonas aeruginosa assessed as decrease in green fluorescence cells at 0.5 to 8 times MIC incubated for 6 hrs by Calcein AM dye based fluorescence based assay; type: subcellular
Pseudomonas aeruginosa [9] = assay: Antibacterial activity against Pseudomonas aeruginosa ATCC 27853 assessed as inhibition of bacterial growth by micro-broth dilution assay; type: functional
Cell membrane [10] = assay: Induction of cytoplasmic membrane depolarization in Pseudomonas aeruginosa assessed as increase in fluorescence intensity MIC by DiSC35 dye based fluorescence analysis; type: subcellular
Pseudomonas aeruginosa [11] = assay: Induction of oxidative stress in Pseudomonas aeruginosa assessed as decrease in GSH activity at 0.5 to 8 times MIC by Ellman's assay; type: functional, organism-based
Pseudomonas aeruginosa [12] = assay: Induction of intracellular ROS accumulation in Pseudomonas aeruginosa assessed increase in fluorescence intensity; type: functional, organism-based
Enterococcus faecalis = assay: Antibacterial activity against Enterococcus faecalis assessed as inhibition of bacterial growth by micro-broth dilution assay; type: functional
Klebsiella pneumoniae = assay: Antibacterial activity against Klebsiella pneumoniae assessed as inhibition of bacterial growth by micro-broth dilution assay; type: functional
Cell membrane [13] = assay: Induction of cell membrane damage in Pseudomonas aeruginosa assessed as increase in protein leakage; type: subcellular
Acinetobacter baumannii = assay: Antibacterial activity against Acinetobacter baumannii assessed as inhibition of bacterial growth by micro-broth dilution assay; type: functional
Staphylococcus aureus [14] = assay: Antibacterial activity against methicillin resistant Staphylococcus aureus assessed as inhibition of bacterial growth by micro-broth dilution assay; type: functional
Staphylococcus aureus [15] = assay: Antibacterial activity against Staphylococcus aureus ATCC 25923 assessed as inhibition of bacterial growth by micro-broth dilution assay; type: functional
Pseudomonas aeruginosa [16] = assay: Inhibition of biofilm formation in Pseudomonas aeruginosa at 0.5 to 8 microg/ml by crystal violet staining based analysis; type: functional; conditions: dose 0.5-8 µg/ml; at 0.5 to 8 µg/mL
Pseudomonas aeruginosa [17] = assay: Antibacterial activity against Pseudomonas aeruginosa ATCC 27853 assessed as inhibition of bacterial growth measured after 6 hrs; type: functional, organism-based
Pseudomonas aeruginosa [18] = assay: Antibacterial activity against Pseudomonas aeruginosa ATCC 27853 assessed as inhibition of bacterial growth at 1 times MIC measured upto 14 hrs; type: functional, organism-based
DNA [19] = assay: Binding affinity to Pseudomonas aeruginosa DNA assessed as reduction in acridine orange-DNA complex formation by competitive binding assay; type: nucleic-acid assay
Cell membrane [20] = assay: Induction of inner membrane damage in Pseudomonas aeruginosa incubated for 6 hrs by Calcein AM dye based fluorescence based assay; type: subcellular
DNA [21] = assay: Binding affinity to Pseudomonas aeruginosa DNA; type: nucleic-acid assay
Escherichia coli [22] = assay: Antibacterial activity against Escherichia coli assessed as inhibition of bacterial growth by micro-broth dilution assay; type: functional
Pseudomonas aeruginosa [23] = assay: Inhibition of biofilm formation in Pseudomonas aeruginosa by crystal violet staining based analysis; type: functional, organism-based; conditions: dose 0.5-8 µg/ml
Cell membrane [24] = assay: Induction of cell membrane damage in Pseudomonas aeruginosa assessed as increase in nucleic acid leakage at 0.5 to 8 times MIC; type: subcellular
Staphylococcus aureus [25] = assay: Antibacterial activity against Staphylococcus aureus ATCC 29213 assessed as inhibition of bacterial growth by micro-broth dilution assay; type: functional
Cell membrane [26] = assay: Induction of outer membrane permeabilization in Pseudomonas aeruginosa assessed as increase in fluorescence intensity at 0.5 to 8 microg/ml by NPN-dye based fluorescence analysis; conditions: dose 0.5-8 µg/ml
Pseudomonas aeruginosa [27] = assay: Induction of resistance development in Pseudomonas aeruginosa ATCC 27853 treated over 30 serial passages; type: functional, organism-based
Pseudomonas aeruginosa [28] = assay: Potency index, ratio of norfloxacin MIC to test compound MIC for antibacterial activity against Pseudomonas aeruginosa assessed as inhibition of bacterial growth by micro-broth dilution assay; type: functional
Staphylococcus aureus [29] = assay: Antibacterial activity against Staphylococcus aureus assessed as inhibition of bacterial growth by micro-broth dilution assay; type: functional
[30] = Hemolytic activity in RBC (unknown origin) assessed as hemolysis; type: toxicity, cell-based, Erythrocyte; conditions: red blood cells (erythrocytes)
Escherichia coli [31] = assay: Antibacterial activity against Escherichia coli ATCC 25922 assessed as inhibition of bacterial growth by micro-broth dilution assay; type: functional
Cell membrane [32] = assay: Induction of cytoplasmic membrane depolarization in Pseudomonas aeruginosa assessed as increase in fluorescence intensity at 0.5 to 4 times MIC by DiSC35 dye based fluorescence analysis; type: subcellular; conditions: time 30.0 min, TDE = time-dependent effect
Pseudomonas aeruginosa [33] = assay: Inhibition of biofilm formation in Pseudomonas aeruginosa assessed as removal of mature biofilm by crystal violet staining based analysis; type: functional, organism-based; conditions: dose 0.5-8 µg/ml
[34] = Selectivity index, ratio of HC50 for hemolytic activity in RBC (unknown origin) assessed as hemolysis to MIC for antibacterial activity against Pseudomonas aeruginosa assessed as inhibition of bacterial growth by micro-broth dilution assay; type: toxicity; conditions: red blood cells (erythrocytes)

With Cn1ccnc1SCC(O)CN1C(=O)/C(=N\Nc2ccc(C(=O)O)cc2)c2ccccc21 (configuration not stated) the Activity (Pseudomonas aeruginosa [1]) was less than 15%, the “fold change (FC)” value (Pseudomonas aeruginosa [2]) was 32 and the Activity (Cell membrane [3]) was “Active”. The Activity (Cell membrane [4]) was “Dose-Dependent Effect”, the Activity (Pseudomonas aeruginosa [5]) was “Active” and the Activity (Pseudomonas aeruginosa [6]) was “Active”. The MIC (Pseudomonas aeruginosa [7]) was 1 µg/mL (≈ 2.21 µM), the Activity (Cell membrane [8]) was “Active” and the MIC (Pseudomonas aeruginosa [9]) was 8 µg/mL (≈ 17.7 µM). For the same compound, the Activity (Cell membrane [10]) was “Dose-Dependent Effect”, the Activity (Pseudomonas aeruginosa [11]) was “Active” and the Activity (Pseudomonas aeruginosa [12]) was “Dose-Dependent Effect”. The MIC (Enterococcus faecalis) was 4 µg/mL (≈ 8.86 µM), the MIC (Klebsiella pneumoniae) was 2 µg/mL (≈ 4.43 µM) and the Activity (Cell membrane [13]) was “Dose-Dependent Effect”. The MIC (Acinetobacter baumannii) was 32 µg/mL (≈ 70.9 µM), the MIC (Staphylococcus aureus [14]) was 8 µg/mL (≈ 17.7 µM) and the MIC (Staphylococcus aureus [15]) was 8 µg/mL (≈ 17.7 µM). For the same compound, the “inhibition (INH)” value (Pseudomonas aeruginosa [16]) was 15%, the Activity (Pseudomonas aeruginosa [17]) was “Active” and the Activity (Pseudomonas aeruginosa [18]) was “Active”. For the same compound, the Activity (DNA [19]) was “Active”, the Activity (Cell membrane [20]) was “Dose-Dependent Effect” and the Activity (DNA [21]) was “Active”. For the same compound, the MIC (Escherichia coli [22]) was 32 µg/mL (≈ 70.9 µM), the inhibition (Pseudomonas aeruginosa [23]) was “Dose-Dependent Effect” and the Activity (Cell membrane [24]) was “Active”. The MIC (Staphylococcus aureus [25]) was 16 µg/mL (≈ 35.4 µM), the Activity (Cell membrane [26]) was “Active” and the Activity (Pseudomonas aeruginosa [27]) was “Active”. It also gave a Ratio (Pseudomonas aeruginosa [28]) of 8, an MIC (Staphylococcus aureus [29]) of 8 µg/mL (≈ 17.7 µM) and an HC50 [30] greater than 512 µg/mL. For the same compound, the MIC (Escherichia coli [31]) was 4 µg/mL (≈ 8.86 µM), the Activity (Cell membrane [32]) was “Tde” and the inhibition (Pseudomonas aeruginosa [33]) was “Dose-Dependent Effect”. The selectivity ratio [34] was greater than 512.
